# Values of other authors in patent US20090312295A1, “Second line treatment of metastatic hormone refractory prostate cancer using satraplatin” (priority 2006, published 2009).
# Columns and labels:
# [1] = system: prostate cancer cell lines PC-3, DU 145 and LNCaP
# LNCaP cells = details: 42 hours, 12 μM satraplatin or 0.7 μM JM-118
# [2] = system: human tumor cell lines with different sensitivities to cisplatin
# [3] = sequential schedules
# [4] = system: hormone refractory prostate cancer; details: symptomatic patients; mitoxantrone combined with prednisone versus prednisone alone
# [5] = system: hormone refractory carcinoma of the prostate
# [6] = system: hormone refractory prostate cancer; details: estramustine combined with either paclitaxel or docetaxel
# [7] = system: hormone refractory prostate cancer; details: first-line HRPC
# [8] = system: hormone refractory prostate cancer; details: 120 mg/m^2 per day for 5 days every 4 weeks, single agent
# [9] = system: ovarian cancer carcinoma cell lines; details: panel of ovarian carcinoma cell lines
# [10] = system: human ovarian carcinoma xenograft models; details: oral versus intravenous cisplatin and carboplatin
# [11] = system: mismatch repair-proficient and mismatch repair-deficient cell lines
# [12] = system: Schizosaccharomyces pombe; details: panel of 23 yeast strains, mutants in genes affecting radiation response
# [13] = system: H460 human non-small cell lung carcinoma (NSCLC); details: H460 xenografted in nude mice
# [14] = system: prostate carcinoma models; details: in vivo
compound,measurement,setting,value
"N.NC1CCCCC1.[Cl-].[Cl-].[Pt+2] [JM118, reference compound]",result of treatment of prostate cancer cells,[1],tumor cell kill
same,PSA mRNA transcription,LNCaP cells,90 % of control
same,cell number,LNCaP cells,61 % of control
same,secreted PSA protein level,LNCaP cells,61 % of control
same,circumvention of resistance to cisplatin,[2],can partially circumvent intrinsic and acquired resistance to cisplatin
same,"in vitro anticancer activity in combination with erlotinib, paclitaxel or 5-FU",[3],synergistic in vitro anticancer activity
O=C1c2c(O)ccc(O)c2C(=O)c2c(NCCNCCO)ccc(NCCNCCO)c21 [Mitoxantrone],palliative response using pain response criteria,[4],29%
N.N.[Cl][Pt][Cl] [cisplatin],response rates to single agent,"[5]; measurable disease, several trials",generally low or poor
same,efficacy in patients with metastatic prostatic carcinoma,[5]; phase II trial (Qazi & Khandekar),not effective
"C[C@]12CC[C@@H]3c4ccc(OC(=O)N(CCCl)CCCl)cc4CC[C@H]3[C@@H]1CC[C@@H]2O [estramustine, Estramustine]",patients with decrease of >50% in serum PSA levels,[6],> 50%
same,tolerability,[6],well tolerated
"C[C@]12C=CC(=O)C=C1CC[C@@H]1[C@@H]2C(=O)C[C@@]2(C)[C@H]1CC[C@]2(O)C(=O)CO [prednisone alone, prednisone]",Progression-free survival,[7],2.5 months
same,patients with >50% decrease in prostate specific antigen (PSA),[7],8.7%
same,Median overall survival,[7]; 50 randomized patients,11.9 months
same,palliative response using pain response criteria,[4],12%
"CC(=O)[O][Pt]([NH2])([Cl])([Cl])([NH]C1CCCCC1)[O]C(C)=O [satraplatin, bis(acetato) ammine dichloro (cyclohexylamine) platinum (IV)]",result of treatment of prostate cancer cells,[1],tumor cell kill
same,sensitivity of cell lines to satraplatin,[1]; androgen-insensitive PC-3 and DU 145 versus androgen-sensitive LNCaP,more sensitive
same,PSA mRNA transcription,LNCaP cells,90 % of control
same,cell number,LNCaP cells,56 % of control
same,secreted PSA protein level,LNCaP cells,58 % of control
same,activity in HRPC,[8],moderate activity
same,toxicity,[8],significant treatment-related toxicities
same,cytotoxicity compared with cisplatin,[9],significantly more cytotoxic than cisplatin
same,efficacy of orally administered satraplatin,[10],comparable to that of cisplatin and carboplatin administered intravenously
same,"sensitivity, mismatch repair-proficient versus -deficient cell lines",[11],no difference in sensitivity
same,change in sensitivity of mutants,[12],none of the mutants demonstrated an appreciable change in sensitivity
same,radiopotentiation,human lung cancer cells,can potentiate the effects of radiation
same,circumvention of resistance to cisplatin,[2],can partially circumvent intrinsic and acquired resistance to cisplatin
same,platinum-DNA adduct levels compared to cisplatin,[2]; equimolar basis,lower levels of platinum-DNA adducts
same,antitumor activity of combination with docetaxel,[13],synergistic antitumor activity
same,antitumor activity of combination with paclitaxel,[13],antitumor activity
same,antitumor activity of combination with docetaxel,[14],synergistic antitumor activity
same,antitumor activity of combination with paclitaxel,[14],synergistic antitumor activity
